From publication PMC9918186, “Interaction of Positively Charged Oligopeptides with Blood Plasma Proteins” (International Journal of Molecular Sciences, 2023)

Legend:
BSA = molecular target: T1, BSA (Bos taurus, UniProt P02769); assay: CD spectroscopy, secondary structure of BSA with peptide; parameters: species or system bovine
T1 construct: purchased Sigma Aldrich
Protocol: Circular dichroism spectroscopy, similar to fluorescence and FTIR spectroscopies, is a useful method to determine the changes in the secondary structure of proteins in case of the presence of compounds that can interact with protein molecules. Therefore, in this study, the CD spectra for BSA protein and GGF fraction, in the absence and presence of analyzed peptides L1, L2, and L3, were measured (Figure 3). We wanted to check the changes in the course of the spectrum after adding every portion of the analyzed peptides, from 1:0 to 1:1.5 protein to L1–L3 molar ratios.
Circular dichroism (CD) spectroscopy was performed using the Jasco J-1500 magnetic circular dichroism spectrometer (JASCO International CO., Tokyo, Japan). All measurements for the protein solutions in the absence and presence of the analyzed peptides L1, L2, and L3 were made at room temperature under simulated physiological conditions in pH 7.4, in phosphate buffer as a solvent. The phosphate buffer not only controls the stable pH but also imitates the biological environments. However, its use leads to some limitations for CD measurements due to containing NaCl and KCl. The spectra were baseline corrected (phosphate buffer was used as a baseline) and were measured in the range of 205–250 nm at a scan rate speed of 50 nm/min, with a response time of 1 s, and a 10 mm or 5 mm path length for BSA and GGF, respectively. The concentrations of proteins and analyzed peptides were 1 × 10^−6 mol/dm^3 and 1 × 10^−3 mol/dm^3, respectively. Experiments were performed with protein to ligand molar ratios: 1:0, 1:0.25, 1:0.5, 1:0.75, 1:1, and 1:1.5. In total, 3 cm^3 of a solution of each protein was titrated by successive additions of analyzed peptides. The results were analyzed by CD Multivariate Calibration Creation and CD Multivariate SSE programs (JASCO International CO., Tokyo, Japan), with the conversion of protein concentrations for mean residue molar concentrations.

[1] = molecular target: bovine serum albumin (BSA) (Bos taurus, UniProt P02769); assay: Fluorescence quenching of BSA by peptides L1–3; conditions: for Stern–Volmer constant Ksv / logKb: BSA 1.0 µM, phosphate buffer; for Stern–Volmer constant Ksv: peptide 0.25–2.0 µM, λex 280 nm; for logKb: double log regression; for quenching rate constant kq: from Ksv with τ0 10^−8 s assumed
Sequence of bovine serum albumin (BSA) (P02769 25-607): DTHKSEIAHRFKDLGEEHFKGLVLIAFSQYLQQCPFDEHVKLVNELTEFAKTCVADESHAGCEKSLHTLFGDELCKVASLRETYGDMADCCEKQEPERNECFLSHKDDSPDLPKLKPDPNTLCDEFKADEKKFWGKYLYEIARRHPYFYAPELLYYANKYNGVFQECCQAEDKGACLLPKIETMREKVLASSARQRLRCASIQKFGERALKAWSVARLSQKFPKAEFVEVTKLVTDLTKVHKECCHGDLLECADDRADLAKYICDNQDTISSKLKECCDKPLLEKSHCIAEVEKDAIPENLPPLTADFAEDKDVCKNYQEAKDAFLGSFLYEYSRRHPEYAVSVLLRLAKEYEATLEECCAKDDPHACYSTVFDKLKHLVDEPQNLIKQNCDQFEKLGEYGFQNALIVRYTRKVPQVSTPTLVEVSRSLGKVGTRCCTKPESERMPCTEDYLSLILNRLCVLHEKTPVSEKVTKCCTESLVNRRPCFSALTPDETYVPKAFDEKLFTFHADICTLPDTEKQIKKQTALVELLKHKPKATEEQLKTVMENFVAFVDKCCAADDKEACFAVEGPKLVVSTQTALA
Protocol: Fluorescence spectroscopy was carried out to characterize the mechanism of the interaction between three plasma proteins, BSA, AAG, and GGF, with the studied peptides. The fluorescence spectra of protein were collected during titration of L1–L3. The excitation wavelength was set at λ = 280 nm (both Trp and Tyr residues were excited).
To confirm this, the fluorescence data were further analyzed by the Stern–Volmer Equation (1) after correction due to the infer filter effect (2):(1) F0/F=1+kqτ[Q]=1+KSV (2) Fcorr=Fobs10^(Aex+Aem)/2 where F0 and F are the fluorescence intensities (after correction) of the protein and protein in the presence of L1–3, respectively, kq is the quenching rate constant, τ0 the average lifetime, [Q] is the L1–3 concentration, Ksv is the Stern–Volmer constant, and Fcorr, and Fobs are the corrected and observed fluorescence intensities, respectively. Aex and Aem are the absorbance values at excitation and emission wavelengths, respectively. A linear regression fit was used to calculate the value of the Stern–Volmer constant (Ksv). Then, assuming the average lifetime of the fluorophore in the excited state for a biomolecule as 10^−8 s, the quenching rate constant (kq) was computed. For dynamic quenching, the maximum scatters collision quenching rate constant for different quenchers with the biopolymers was reported to be 2 × 10^10 dm^3mol^−1s^−1 [55, 56]. […] Collisional quenching occurs when the excited-state fluorophore is deactivated by contact with some other molecule in solution (by collisions). […] This is a dynamic mechanism of quenching. The quenching constant characterizes the quenching mechanism. The maximum value for collisional quenching is 2 × 10^10 dm^3mol^−1s^−1. […] For further confirmation, measurements were made at, in addition to 297 K, temperatures 303 and 308 K. Experimental data points were fitted and analyzed using Equation (1).
Both for the complexes with BSA and with GGF, the binding constant (Kb) and the binding stoichiometry (n) were calculated. […] The values of Kb and n were calculated from the slope and the intercept of the log [(F0 − F)/F] versus log [Q] plot (Figure 2).
The forces involved in the interaction can be identified by measurement at different temperatures and then by thermodynamic analysis. The signs of the thermodynamic parameters identify the type of interactions. The enthalpy change (ΔH°), the entropic change (ΔS°), and the free energy change (ΔG°) were calculated from Equations (4) and (5):(4) […]=−ΔH^°/RT+ΔS^°/R (5) ΔG^°=ΔH^°−TΔS^°=−RTlnKb where Kb is the binding constant and R is the universal gas constant. To determine the thermodynamic parameters, the van’t Hoff plot was first conducted, i.e., the temperature dependence of the binding constant, according to Equation (4). The Kb values at the three temperatures were fitted by the linear regression method. The values of ΔH and ΔS were calculated from the slope and intercept at the fitted line. Next, the free energy change (ΔG°) was obtained from Equation (5).

[2] = system: oxygen-free radical species (ROS); conditions: previous studies; cited from earlier work
Description: (§1) The subject of this study was oligopeptides with the following sequences: Lys-Dab-Dab-Gly-Orn-Pro-His-Lys-Arg-Lys-Dbt, Lys-Dab-Ala-Gly-Orn-Pro-His-Lys-Arg, and Lys-Dab-Dab-Gly-Orn-Pro-Phe(2-F)-Lys-Arg, which are referred to as L1, L2, and L3, respectively, in the remainder of this work. The investigated oligopeptides consist of an amino group (NH2) in the side chain of unique unnatural amino acids such as Dab (2,4-diaminobutyric acid) and Orn (2,5-diaminopentanoic acid) and standard amino acids such as Lys, and N-terminus and in Dbt in the C-terminal region. Additionally, the presence of the g ...

[3] = previous studies; cited from earlier work
Description: as §1

[4] = BSA:peptide 1:0.25, pH 7.4 phosphate buffer
[5] = BSA:peptide 1:0.5, pH 7.4 phosphate buffer
[6] = BSA:peptide 1:0.75, pH 7.4 phosphate buffer
[7] = BSA:peptide 1:1, pH 7.4 phosphate buffer
[8] = BSA:peptide 1:1.5, pH 7.4 phosphate buffer
[9] = BSA, van't Hoff plot of Kb at 297, 303, 308 K

T1 sequence (P02769 25-607): as above

% Other of BSA (BSA; [4]): 24.6%
% β-Sheet of BSA (BSA; [4]): 6.0%
% β-Turn of BSA (BSA; [4]): 10.0%
% α-Helix of BSA (BSA; BSA:peptide 1:0.25, pH 7.4 phosphate buffer, room temperature, BSA 1 µM): 59.4%
% Other of BSA (BSA; [5]): 24.8%
% α-Helix of BSA (BSA; [5]): 59.2%
% β-Sheet of BSA (BSA; [5]): 5.9%
% β-Turn of BSA (BSA; [5]): 10.1%
% Other of BSA (BSA; [6]): 25.0%
% α-Helix of BSA (BSA; [6]): 58.6%
% β-Sheet of BSA (BSA; [6]): 6.3%
% β-Turn of BSA (BSA; [6]): 10.1%
% Other of BSA (BSA; [7]): 25.0%
% α-Helix of BSA (BSA; [7]): 58.5%
% β-Sheet of BSA (BSA; [7]): 6.4%
% β-Turn of BSA (BSA; [7]): 10.1%
% Other of BSA (BSA; [8]): 25.1%
% α-Helix of BSA (BSA; [8]): 58.2%
% β-Sheet of BSA (BSA; [8]): 6.6%
% β-Turn of BSA (BSA; [8]): 10.1%
reduction in the percentage of α-helix of BSA (BSA; from 1:0 to 1:1.5 BSA:peptide): 2.5%
number of binding sites n ([1]; 297 K, BSA): 0.80 ± 0.02
Stern–Volmer constant Ksv ([1]; 297 K, inner-filter corrected): 1.55 ± 0.07 × 10^5 dm^3mol^−1
logKb ([1]; 297 K): 4.07 ± 0.07
quenching rate constant kq ([1]; 297 K): 1.55 ± 0.07 × 10^13 dm^3mol^−1s^−1
number of binding sites n ([1]; 303 K, BSA): 0.80 ± 0.04
Stern–Volmer constant Ksv ([1]; 303 K): 1.21 ± 0.03 × 10^5 dm^3mol^−1
logKb ([1]; 303 K): 3.95 ± 0.09
quenching rate constant kq ([1]; 303 K): 1.21 ± 0.03 × 10^13 dm^3mol^−1s^−1
number of binding sites n ([1]; 308 K, BSA): 0.80 ± 0.02
Stern–Volmer constant Ksv ([1]; 308 K): 0.70 ± 0.06 × 10^5 dm^3mol^−1
logKb ([1]; 308 K): 3.72 ± 0.15
quenching rate constant kq ([1]; 308 K): 0.70 ± 0.06 × 10^13 dm^3mol^−1s^−1
ΔG° ([1]; BSA, from ΔH° − TΔS°): −23 ± 1 kJmol^−1
ΔH° [1, 9]: −54 ± 2 kJmol^−1
ΔS° [1, 9]: −106 ± 3 Jmol^−1K^−1
Substance: Lys-Dab-Dab-Gly-Orn-Pro-His-Lys-Arg-Lys-Dbt [L1]
effect on level of oxygen-free radical species (ROS) [2]: reduce the level of oxygen-free radical species (ROS)
anti-inflammatory activity [3]: possess anti-inflammatory activity
